Assays:
arrowleaf sida = test: Test C postemergence arrowleaf sida; assay type: in vivo, Sida rhombifolia; conditions: 0 to 100 scale, 0 no effect, 100 complete control
Outline: (§1)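 Scores (0 = no effect, 100 = complete control) come from visual comparison with untreated controls after about 14–21 days. Spray formulation was a non-phytotoxic solvent mixture including surfactant; plants grew in a 60:40 sandy loam–potting mix blend.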

common ragweed [1] = test: Test C postemergence common ragweed; assay type: in vivo, Ambrosia elatior; conditions: 0 to 100 scale, 0 no effect, 100 complete control
Outline: as §1

eastern black nightshade = test: Test C postemergence eastern black nightshade; assay type: in vivo, Solanum ptycanthum; conditions: 0 to 100 scale, 0 no effect, 100 complete control
Outline: as §1

fall panicum = test: Test C postemergence fall panicum; assay type: in vivo, Panicum dichotomiflorum; conditions: 0 to 100 scale, 0 no effect, 100 complete control
Outline: as §1

hairy beggarticks = test: Test C postemergence hairy beggarticks; assay type: in vivo, Bidens pilosa; conditions: 0 to 100 scale, 0 no effect, 100 complete control
Outline: as §1

johnsongrass = test: Test C postemergence johnsongrass; assay type: in vivo, Sorghum halepense; conditions: 0 to 100 scale, 0 no effect, 100 complete control
Outline: as §1

lambsquarters = test: Test C postemergence lambsquarters; assay type: in vivo, Chenopodium album; conditions: 0 to 100 scale, 0 no effect, 100 complete control
Outline: as §1

redroot pigweed = test: Test C postemergence redroot pigweed; assay type: in vivo, Amaranthus retroflexus; conditions: 0 to 100 scale, 0 no effect, 100 complete control
Outline: as §1

velvetleaf = test: Test C postemergence velvetleaf; assay type: in vivo, Abutilon theophrasti; conditions: 0 to 100 scale, 0 no effect, 100 complete control
Outline: as §1

sourgrass = test: Test D sourgrass; assay type: in vivo, Trichachne insularis; conditions: Preemergence, 0 to 100 scale
Outline: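 Each weed species is planted in its own pot or compartment; preemergence doses go on the sandy loam surface within a day. The formulation is a surfactant-containing, non-phytotoxic solvent blend. Ratings come from visual comparison with untreated controls 14 to 21 days later, where 100 means complete control.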

green foxtail = test: Test E green foxtail; assay type: in vivo, Setaria viridis; conditions: Postemergence; for Plant response rating, Green foxtail: 0 to 100 scale
Outline: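 Greenhouse test: for postemergence, foliar application at 1- to 4-leaf stage; compound in non-phytotoxic solvent with surfactant. Rating is visual, relative to untreated controls, about 21 to 28 days after treatment.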

common ragweed [2] = test: Test D common ragweed; assay type: in vivo, Ambrosia elatior; conditions: Postemergence, 0 to 100 scale
itchgrass = test: Test D itchgrass; assay type: in vivo, Rottboellia exaltata; conditions: Postemergence, 0 to 100 scale
surinam grass = test: Test D surinam grass; assay type: in vivo, Brachiaria decumbens; conditions: Rate 500 g/ha; Postemergence; 0 to 100 scale
[3] = Rate 64 g/ha, 0 no injury, 100 complete control
[4] = Rate 125 g/ha, 0 no injury, 100 complete control

## C=CCn1c(=O)on(C(=O)N(c2ccc(F)cc2)C(C)C)c1=O [Compound 146]
Arrowleaf sida; Rate 140 g/ha
  Plant response rating Arrowleaf sida: 40
Arrowleaf sida; Rate 280 g/ha
  Plant response rating Arrowleaf sida: 45
Arrowleaf sida; Rate 560 g/ha
  Plant response rating Arrowleaf sida: 85
Arrowleaf sida; Rate 1120 g/ha
  Plant response rating Arrowleaf sida: 90
Common ragweed [1]; Rate 140 g/ha
  Plant response rating Common ragweed: 10
Common ragweed [1]; Rate 560 g/ha
  Plant response rating Common ragweed: 30
Common ragweed [1]; Rate 1120 g/ha
  Plant response rating Common ragweed: 30
Eastern black nightshade; Rate 140 g/ha
  Plant response rating E. blacknightsh: 0
Eastern black nightshade; Rate 280 g/ha
  Plant response rating E. blacknightsh: 30
Eastern black nightshade; Rate 560 g/ha
  Plant response rating E. blacknightsh: 85
Eastern black nightshade; Rate 1120 g/ha
  Plant response rating E. blacknightsh: 85
Fall panicum; Rate 140 g/ha
  Plant response rating Fall panicum: 50
Fall panicum; Rate 280 g/ha
  Plant response rating Fall panicum: 60
Fall panicum; Rate 560 g/ha
  Plant response rating Fall panicum: 90
Fall panicum; Rate 1120 g/ha
  Plant response rating Fall panicum: 90
Hairy beggarticks; Rate 140 g/ha
  Plant response rating H. beggarticks: 10
Hairy beggarticks; Rate 280 g/ha
  Plant response rating H. beggarticks: 20
Hairy beggarticks; Rate 560 g/ha
  Plant response rating H. beggarticks: 85
Hairy beggarticks; Rate 1120 g/ha
  Plant response rating H. beggarticks: 85
johnsongrass; Rate 140 g/ha
  Plant response rating Johnsongrass: 0
johnsongrass; Rate 280 g/ha
  Plant response rating Johnsongrass: 30
johnsongrass; Rate 560 g/ha
  Plant response rating Johnsongrass: 60
johnsongrass; Rate 1120 g/ha
  Plant response rating Johnsongrass: 90
lambsquarters; Rate 140 g/ha
  Plant response rating Lambsquarters: 0
lambsquarters; Rate 280 g/ha
  Plant response rating Lambsquarters: 5
lambsquarters; Rate 560 g/ha
  Plant response rating Lambsquarters: 10
lambsquarters; Rate 1120 g/ha
  Plant response rating Lambsquarters: 50
Redroot pigweed; Rate 140 g/ha
  Plant response rating, Redroot pigweed: 0
Redroot pigweed; Rate 1120 g/ha
  Plant response rating, Redroot pigweed: 20
velvetleaf; Rate 140 g/ha
  Plant response rating, Velvetleaf: 0
velvetleaf; Rate 280 g/ha
  Plant response rating, Velvetleaf: 40
velvetleaf; Rate 560 g/ha
  Plant response rating, Velvetleaf: 40
velvetleaf; Rate 1120 g/ha
  Plant response rating, Velvetleaf: 60
sourgrass; Rate 16 g/ha, 0 no injury, 100 complete control
  Plant response rating, Sourgrass: 0
sourgrass; Rate 32 g/ha, 0 no injury, 100 complete control
  Plant response rating, Sourgrass: 98
sourgrass; [3]
  Sourgrass plant response rating: 100
sourgrass; [4]
  Sourgrass plant response rating: 100
sourgrass; Rate 250 g/ha
  Plant response rating, Sourgrass: 100
sourgrass; Rate 500 g/ha
  Plant response rating, Sourgrass: 100
Green foxtail; Rate 62 g/ha
  Plant response rating, Green foxtail: 70
Green foxtail; Rate 125 g/ha
  Plant response rating, Green foxtail: 20
Green foxtail; Rate 500 g/ha, 0 no effect, 100 complete control
  Plant response rating, Green foxtail: 80
Green foxtail; Rate 250 g/ha, 0 to 100 scale where 0 is no effect and 100 is complete control
  Green foxtail plant response rating: 70
Common ragweed [2]; [3]
  Plant response rating, C. ragweed: 0
Common ragweed [2]; [4]
  Plant response rating, C. ragweed: 0
Common ragweed [2]; Rate 250 g/ha
  Plant response rating, C. ragweed: 30
Common ragweed [2]; Rate 500 g/ha
  Plant response rating, C. ragweed: 40
itchgrass; [3]
  Plant response rating, Itchgrass: 30
itchgrass; [4]
  Plant response rating, Itchgrass: 30
itchgrass; Rate 250 g/ha
  Plant response rating, Itchgrass: 50
itchgrass; Rate 500 g/ha
  Plant response rating, Itchgrass: 65
Surinam grass
  Plant response rating Surinam grass: 80

Source: patent US6737383B1, “Herbicidal oxadiazolidines” (priority 1999, dated 2004)
